Article PMC4826332 (Journal of medicinal chemistry, 2015)
Read-outs that look alike come from different tables or passages of the source.

Assays:
[1] = molecular target: T1, P450 1B1 (Homo sapiens, UniProt Q16678); experiment: NADPH-dependency assay, P450 1B1; settings: 10 nM (0.01 μM) inhibitor, with or without 5 min NADPH preincubation
T1 sequence (Q16678 1-543): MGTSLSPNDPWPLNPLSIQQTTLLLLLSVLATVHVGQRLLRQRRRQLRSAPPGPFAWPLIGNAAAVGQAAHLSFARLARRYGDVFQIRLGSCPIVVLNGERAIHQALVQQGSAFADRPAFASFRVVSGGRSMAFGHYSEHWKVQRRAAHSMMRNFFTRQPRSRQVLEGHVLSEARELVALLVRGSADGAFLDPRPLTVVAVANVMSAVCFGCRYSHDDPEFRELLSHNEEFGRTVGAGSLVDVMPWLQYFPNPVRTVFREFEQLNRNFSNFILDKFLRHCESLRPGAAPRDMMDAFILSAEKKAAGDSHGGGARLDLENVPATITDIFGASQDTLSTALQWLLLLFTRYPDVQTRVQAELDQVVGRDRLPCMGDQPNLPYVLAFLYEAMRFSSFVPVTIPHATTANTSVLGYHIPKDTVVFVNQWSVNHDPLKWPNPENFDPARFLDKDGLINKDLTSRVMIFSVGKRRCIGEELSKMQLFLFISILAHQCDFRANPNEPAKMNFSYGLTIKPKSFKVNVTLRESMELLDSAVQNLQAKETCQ

[2] = molecular target: T2, P450 1A2 (Homo sapiens, UniProt P05177); experiment: Time-dependent inhibition of P450 1A2; settings: for KI (time-dependent inhibition of P450 1A2): Kitz-Wilson plot
T2 sequence (P05177 1-516): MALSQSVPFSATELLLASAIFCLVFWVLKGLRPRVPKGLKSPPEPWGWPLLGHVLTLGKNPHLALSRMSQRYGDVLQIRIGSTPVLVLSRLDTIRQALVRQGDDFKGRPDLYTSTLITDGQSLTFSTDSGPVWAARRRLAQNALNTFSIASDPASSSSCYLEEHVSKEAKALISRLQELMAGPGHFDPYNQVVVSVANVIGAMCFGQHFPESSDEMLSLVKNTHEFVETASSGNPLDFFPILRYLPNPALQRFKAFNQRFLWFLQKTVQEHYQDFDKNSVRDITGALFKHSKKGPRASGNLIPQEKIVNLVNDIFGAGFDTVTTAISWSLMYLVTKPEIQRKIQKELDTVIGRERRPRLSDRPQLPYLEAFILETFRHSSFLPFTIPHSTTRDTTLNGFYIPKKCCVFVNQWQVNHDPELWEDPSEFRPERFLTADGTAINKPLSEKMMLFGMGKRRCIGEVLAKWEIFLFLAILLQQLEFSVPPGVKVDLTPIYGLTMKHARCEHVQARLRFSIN

[3] = molecular target: aryl hydrocarbon receptor (AhR) (Homo sapiens, UniProt P35869); experiment: Yeast AhR-signaling assay; type: cell-based
Chain of aryl hydrocarbon receptor (AhR) (P35869 11-848): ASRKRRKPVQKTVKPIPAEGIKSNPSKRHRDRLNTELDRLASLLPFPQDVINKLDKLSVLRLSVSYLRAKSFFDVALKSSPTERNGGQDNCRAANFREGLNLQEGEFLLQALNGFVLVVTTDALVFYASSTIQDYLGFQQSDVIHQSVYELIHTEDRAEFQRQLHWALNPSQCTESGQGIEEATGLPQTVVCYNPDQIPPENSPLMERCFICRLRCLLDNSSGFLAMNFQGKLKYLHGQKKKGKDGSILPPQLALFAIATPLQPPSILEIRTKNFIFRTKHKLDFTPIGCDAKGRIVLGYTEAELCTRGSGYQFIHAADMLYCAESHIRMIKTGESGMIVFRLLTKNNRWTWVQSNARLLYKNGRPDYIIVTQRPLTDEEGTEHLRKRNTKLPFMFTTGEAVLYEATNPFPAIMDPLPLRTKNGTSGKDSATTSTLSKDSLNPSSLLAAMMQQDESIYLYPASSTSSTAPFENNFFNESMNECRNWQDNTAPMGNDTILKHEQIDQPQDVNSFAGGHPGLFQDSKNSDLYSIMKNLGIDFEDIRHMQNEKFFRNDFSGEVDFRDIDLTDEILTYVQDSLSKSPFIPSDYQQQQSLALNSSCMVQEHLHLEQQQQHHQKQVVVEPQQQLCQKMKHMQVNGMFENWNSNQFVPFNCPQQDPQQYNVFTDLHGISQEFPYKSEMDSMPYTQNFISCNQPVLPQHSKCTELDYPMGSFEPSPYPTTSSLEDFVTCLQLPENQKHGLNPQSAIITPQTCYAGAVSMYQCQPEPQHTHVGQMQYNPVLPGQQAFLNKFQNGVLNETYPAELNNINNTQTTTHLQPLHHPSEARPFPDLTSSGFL
Chain of aryl hydrocarbon receptor (AhR) (P27540 whole entry partner): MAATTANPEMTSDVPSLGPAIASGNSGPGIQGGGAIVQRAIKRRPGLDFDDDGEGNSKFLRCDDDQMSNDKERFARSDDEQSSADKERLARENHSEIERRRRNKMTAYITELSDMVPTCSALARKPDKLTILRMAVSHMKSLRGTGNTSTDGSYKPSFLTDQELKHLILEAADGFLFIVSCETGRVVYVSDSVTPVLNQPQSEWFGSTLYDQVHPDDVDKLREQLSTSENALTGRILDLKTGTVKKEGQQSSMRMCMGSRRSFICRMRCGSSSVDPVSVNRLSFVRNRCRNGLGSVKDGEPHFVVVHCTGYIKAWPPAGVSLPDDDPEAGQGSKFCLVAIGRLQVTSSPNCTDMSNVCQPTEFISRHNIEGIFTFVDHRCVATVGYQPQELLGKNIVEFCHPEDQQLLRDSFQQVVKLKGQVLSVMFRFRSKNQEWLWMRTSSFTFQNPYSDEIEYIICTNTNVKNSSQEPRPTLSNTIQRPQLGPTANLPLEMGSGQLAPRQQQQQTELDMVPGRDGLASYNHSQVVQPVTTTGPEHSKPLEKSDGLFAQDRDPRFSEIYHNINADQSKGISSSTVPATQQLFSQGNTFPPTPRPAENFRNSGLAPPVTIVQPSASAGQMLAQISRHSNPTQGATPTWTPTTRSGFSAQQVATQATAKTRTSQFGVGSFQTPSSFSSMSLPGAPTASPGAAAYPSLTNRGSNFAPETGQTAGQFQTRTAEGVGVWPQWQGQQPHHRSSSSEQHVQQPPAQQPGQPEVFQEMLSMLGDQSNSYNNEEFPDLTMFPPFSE

[4] = molecular target: T3, P450 1A1 (Homo sapiens, UniProt P04798); experiment: NADPH-dependency assay, P450 1A1; settings: 10 nM (0.01 μM) inhibitor, with or without 5 min NADPH preincubation
T3 sequence (P04798 1-512): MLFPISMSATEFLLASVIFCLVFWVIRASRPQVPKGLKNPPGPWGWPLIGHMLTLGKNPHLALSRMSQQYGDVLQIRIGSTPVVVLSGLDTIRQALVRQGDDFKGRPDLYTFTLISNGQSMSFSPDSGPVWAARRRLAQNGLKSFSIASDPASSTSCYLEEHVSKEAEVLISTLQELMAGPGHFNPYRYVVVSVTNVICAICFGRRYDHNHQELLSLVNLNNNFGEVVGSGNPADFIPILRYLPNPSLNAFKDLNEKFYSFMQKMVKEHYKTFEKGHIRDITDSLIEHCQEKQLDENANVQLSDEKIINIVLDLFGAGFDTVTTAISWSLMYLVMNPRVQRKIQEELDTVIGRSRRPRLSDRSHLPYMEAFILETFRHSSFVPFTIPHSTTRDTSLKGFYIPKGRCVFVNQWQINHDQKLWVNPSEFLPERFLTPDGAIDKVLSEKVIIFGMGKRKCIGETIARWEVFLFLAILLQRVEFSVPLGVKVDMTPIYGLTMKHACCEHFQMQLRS

[5] = molecular target: T4, CYP1A2 (Homo sapiens, UniProt P05177); experiment: NADPH-dependency assay, P450 1A2; settings: human, pH 7.6, probe methoxyresorufin (MROD), 5 µM
T4 sequence (P05177 1-516): T2 sequence (P05177 1-516)

[6] = molecular target: T2, P450 1A2; experiment: NADPH-dependency assay, P450 1A2; settings: 10 nM inhibitor, without NADPH preincubation
[7] = molecular target: T5, P450 1A2 in HepG2 cells (Homo sapiens, UniProt P05177); experiment: MROD assay in HepG2 cells
T5 sequence (P05177 2-516): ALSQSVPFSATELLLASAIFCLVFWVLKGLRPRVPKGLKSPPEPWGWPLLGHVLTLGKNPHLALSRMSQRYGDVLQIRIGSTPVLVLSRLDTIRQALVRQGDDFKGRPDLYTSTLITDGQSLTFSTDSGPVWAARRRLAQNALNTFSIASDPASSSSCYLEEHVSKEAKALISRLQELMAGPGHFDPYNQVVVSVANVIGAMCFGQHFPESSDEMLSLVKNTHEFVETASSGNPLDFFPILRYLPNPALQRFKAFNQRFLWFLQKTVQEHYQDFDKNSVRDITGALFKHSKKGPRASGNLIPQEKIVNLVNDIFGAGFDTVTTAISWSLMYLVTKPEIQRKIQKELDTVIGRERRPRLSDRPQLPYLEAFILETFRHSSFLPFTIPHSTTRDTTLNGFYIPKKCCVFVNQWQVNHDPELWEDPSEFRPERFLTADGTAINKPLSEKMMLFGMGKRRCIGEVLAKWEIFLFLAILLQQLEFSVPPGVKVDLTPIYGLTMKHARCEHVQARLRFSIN

[8] = test system: HepG2 cells; experiment: Alamar blue viability assay in HepG2 cells; type: cell-based, human

Cc1cc2c(ccc3c(=O)cc(-c4ccccc4)oc32)o1 [Compound 3, 8-Methyl-2-phenyl-4H-furo[2,3-h]chromen-4-one]
effect on P450 1B1 activity [1]: does not influence | mode of inhibition of P450 1A2 (time dependence) [2]: time-dependent inhibitor | KI (time-dependent inhibition of P450 1A2) [2]: 440 nM | mode of inhibition of P450 1A2 (time dependence) ([2]; listed as 7,8-furanoflavone): time-dependently inhibits | mode of inhibition of P450 1A2 (time dependence) ([2]; listed as 78FF): time- and NADPH-dependent inhibition | concentrations showing considerable activation of AhR ([3]; yeast strain MYA-3637): higher than 10^−7 M | effect on P450 1A1 activity [4]: does not influence | inhibition at 6 min, 0.01 µM [5]: 90% | effect on P450 1A2 activity without NADPH preincubation [6]: significant inhibition

Cc1cc2c(cc(O)c3c(=O)cc(-c4ccccc4)oc32)o1 [Compound 8, 5-Hydroxy-8-methyl-2-phenyl-4H-furo[2,3-h]chromen-4-one]
effect on P450 1B1 activity [1]: does not influence | mode of inhibition of P450 1A2 (time dependence) [2]: time- and NADPH-dependent inhibition | KI (time-dependent inhibition of P450 1A2) [2]: 120 nM | effect on P450 1A1 activity [4]: does not influence | inhibition at 6 min, 0.01 µM [5]: 90%

O=c1cc(C(F)(F)F)c2ccc3c(c2o1)C=CCO3 [Compound 20, 4-(Trifluoromethyl)pyrano[2,3-f]chromen-2(8H)-one]
mode of inhibition of P450 1A2 (time dependence) [2]: competitive inhibitor | influence on βNF-induced AhR activation ([3]; 10^−4 to 10^−10 M compound combined with 10^−8 M βNF): do not influence | concentration at which AhR is not activated ([3]; yeast AhR activation assays): lower than 1 μM | concentrations at which AhR-signaling pathway is not activated ([3]; yeast strain MYA-3637): lower than 10^−6 M | concentrations decreasing MROD activity in HepG2 cells ([7]; 24 h incubation, read at 10, 30, 60 min): higher than 10^−6 M | concentrations decreasing MROD activity in HepG2 cells ([7]; in-cell P450 1A2 inhibition assays): higher than 1 μM | concentration not toxic to HepG2 cells [8]: ≤ 10^−5 M

O=c1cc(-c2ccccc2)oc2ccc3ccccc3c12 [βNF, β-naphthoflavone, reference compound]
activation of AhR-signaling pathway (Abs405/Abs600) ([3]; 10^−8 M, positive control, compared with blank control (1% DMSO)): great activation | effect on MROD activity in HepG2 cells ([7]; 10^−5 M, 24 h incubation, read at 10, 30, 60 min): increased
